Measured values published in patent publication US6677460B1, “Aromatic carboxylic acid bicyclic sulfur compounds” (Idemitsu Kosan Company, Limited, priority 1993, dated 2004).

Columns and labels:
Format in all cases: in vivo
[1] = test system: barnyard grass; test: Foliar treatment test (2); settings: dosage 10 g a.i./are, 20th day after treatment
Procedure: (§1) 90 Parts by weight of the above carrier and 10 parts by weight of each of Compounds obtained in the above Preparation Examples were uniformly pulverized and mixed to obtain herbicides. Further, for Herbicide Comparative Examples, comparative herbicides were prepared by uniformly pulverizing and mixing 90 parts by weight of the above carrier and 10 parts by weight of each of the following Compounds x, y, A, B and C.
(§2) (2) Biological Test (Foliar Treatment Test, Herbicide Examples 1 and 2 and Herbicide Comparative Examples 1 and 2)
(§3) Seeds of weeds such as large crabgrass, barnyard grass, green foxtail, cocklebur, velvetleaf and slender amaranth and seeds of corn, wheat and barley were sown in 1/5,000-are Wagner pots filled with upland soil, and covered with upland soil. The seeds were grown in a greenhouse, and at the stage of 1˜2 leaves of these plants, a predetermined amount of the herbicide prepared in the above (1) was suspended in water and uniformly sprayed onto leaf and stalk portions at a rate of 200 liter/10 are. Thereafter, the plants were grown in the greenhouse, and on 20th day after the treatment, the herbicide was evaluated for herbicidal efficacy.
(§4) The herbicidal efficacy and phytotoxcity to crops were shown on the basis of the following ratings.
(§5) The ratio of remaining plant weight to non-treated was determined on the basis of the ratio of remaining plant weight to non-treated=(remaining plant weight in treated plot/remaining plant weight in non-treated plot)×100. This is also applicable to biological tests hereinafter.

[2] = test system: cocklebur; test: Foliar treatment test (2); settings: dosage 10 g a.i./are, 20th day after treatment
Procedure: as §1, §2, §3, §4, §5

[3] = test system: green foxtail; test: Foliar treatment test (2); settings: dosage 10 g a.i./are, 20th day after treatment
Procedure: as §1, §2, §3, §4, §5

[4] = test system: large crabgrass; test: Foliar treatment test (2); settings: dosage 10 g a.i./are, 20th day after treatment
Procedure: as §1, §2, §3, §4, §5

[5] = test system: slender amaranth; test: Foliar treatment test (2); settings: dosage 10 g a.i./are, 20th day after treatment
Procedure: as §1, §2, §3, §4, §5

[6] = test system: velvetleaf; test: Foliar treatment test (2); settings: dosage 10 g a.i./are, 20th day after treatment
Procedure: as §1, §2, §3, §4, §5

[7] = test system: barnyard grass; test: Upland soil treatment test (3); settings: dosage 10 g a.i./are, 20th day after treatment
Procedure: as §1
(§6) (3) Biological Test (Upland Soil Treatment Test, Herbicide Examples 3 and 4 and Herbicide Comparative Examples 3 and 4)
(§7) Seeds of weeds such as large crabgrass, barnyardgrass, green foxtail, cocklebur, velvetleaf and slender amaranth and seeds of corn, wheat and barley were sown in 1/5,000-are Wagner pots filled with upland soil, and covered with upland soil. Then, a predetermined amount of the herbicide prepared in the above (1) was suspended in water and uniformly sprayed onto the soil surface. Thereafter, the plants were grown in the greenhouse, and on 20th day after the treatment, the herbicide was evaluated for herbicidal efficacy.
(§8) The herbicidal efficacy and the phytotoxicity to crops are shown on the basis of the ratings described in (2) Foliar treatment test.

[8] = test system: cocklebur; test: Upland soil treatment test (3); settings: dosage 10 g a.i./are, 20th day after treatment
Procedure: as §1, §6, §7, §8

[9] = test system: green foxtail; test: Upland soil treatment test (3); settings: dosage 10 g a.i./are, 20th day after treatment
Procedure: as §1, §6, §7, §8

[10] = test system: large crabgrass; test: Upland soil treatment test (3); settings: dosage 10 g a.i./are, 20th day after treatment
Procedure: as §1, §6, §7, §8

[11] = test system: slender amaranth; test: Upland soil treatment test (3); settings: dosage 10 g a.i./are, 20th day after treatment
Procedure: as §1, §6, §7, §8

[12] = test system: velvetleaf; test: Upland soil treatment test (3); settings: dosage 10 g a.i./are, 20th day after treatment
Procedure: as §1, §6, §7, §8

[13] = test system: barnyardgrass; test: Foliar treatment test (7); settings: 1000 g a.i./hectare, 20th day after spraying
Procedure: as §1
(§9) (7) Biological Test (Foliar Treatment Test, Herbicide Examples 43-47 and Comparative Examples 11 and 12)
as §3, with “large crabgrass, barnyardgrass, green foxtail,” for “large crabgrass, barnyard grass, green foxtail,”, “stage of 1 to 2 leaves of” for “stage of 1˜2 leaves of”, “200 liter/10 ares. Thereafter, the” for “200 liter/10 are. Thereafter, the”, “and on the 20th day” for “and on 20th day”, “after the spraying treatment, the” for “after the treatment, the”
as §4, §5

[14] = test system: cocklebur; test: Foliar treatment test (7); settings: 1000 g a.i./hectare, 20th day after spraying
Procedure: as §1, §9
as §3, with “large crabgrass, barnyardgrass, green foxtail,” for “large crabgrass, barnyard grass, green foxtail,”, “stage of 1 to 2 leaves of” for “stage of 1˜2 leaves of”, “200 liter/10 ares. Thereafter, the” for “200 liter/10 are. Thereafter, the”, “and on the 20th day” for “and on 20th day”, “after the spraying treatment, the” for “after the treatment, the”
as §4, §5

[15] = test system: green foxtail; test: Foliar treatment test (7); settings: 1000 g a.i./hectare, 20th day after spraying
Procedure: as §1, §9
as §3, with “large crabgrass, barnyardgrass, green foxtail,” for “large crabgrass, barnyard grass, green foxtail,”, “stage of 1 to 2 leaves of” for “stage of 1˜2 leaves of”, “200 liter/10 ares. Thereafter, the” for “200 liter/10 are. Thereafter, the”, “and on the 20th day” for “and on 20th day”, “after the spraying treatment, the” for “after the treatment, the”
as §4, §5

[16] = test system: large crabgrass; test: Foliar treatment test (7); settings: 1000 g a.i./hectare, 20th day after spraying
Procedure: as §1, §9
as §3, with “large crabgrass, barnyardgrass, green foxtail,” for “large crabgrass, barnyard grass, green foxtail,”, “stage of 1 to 2 leaves of” for “stage of 1˜2 leaves of”, “200 liter/10 ares. Thereafter, the” for “200 liter/10 are. Thereafter, the”, “and on the 20th day” for “and on 20th day”, “after the spraying treatment, the” for “after the treatment, the”
as §4, §5

[17] = test system: slender amaranth; test: Foliar treatment test (7); settings: 1000 g a.i./hectare, 20th day after spraying
Procedure: as §1, §9
as §3, with “large crabgrass, barnyardgrass, green foxtail,” for “large crabgrass, barnyard grass, green foxtail,”, “stage of 1 to 2 leaves of” for “stage of 1˜2 leaves of”, “200 liter/10 ares. Thereafter, the” for “200 liter/10 are. Thereafter, the”, “and on the 20th day” for “and on 20th day”, “after the spraying treatment, the” for “after the treatment, the”
as §4, §5

[18] = test system: velvetleaf; test: Foliar treatment test (7); settings: 1000 g a.i./hectare, 20th day after spraying
Procedure: as §1, §9
as §3, with “large crabgrass, barnyardgrass, green foxtail,” for “large crabgrass, barnyard grass, green foxtail,”, “stage of 1 to 2 leaves of” for “stage of 1˜2 leaves of”, “200 liter/10 ares. Thereafter, the” for “200 liter/10 are. Thereafter, the”, “and on the 20th day” for “and on 20th day”, “after the spraying treatment, the” for “after the treatment, the”
as §4, §5

[19] = test system: barnyard grass; test: Upland soil treatment test (8); settings: 1000 g a.i./hectare, 20th day after spraying
Procedure: as §1
(§10) (8) Biological Test (Upland Soil Treatment Test, Herbicide Examples 48-52 and Herbicide Comparative Examples 13 and 14)
(§11) Seeds of weeds such as large crabgrass, barnyard brass, green foxtail, cocklebur, velvetleaf and slender amarnth and seeds of corn, wheat and barley were sown in 1/5,000-are Wagner pots filled with upland soil, and covert with upland soil. Then, a predetermined amount of the herbicide prepared in the above (1) was suspended in water and uniformly sprayed onto the soil surface. Thereafter, the plant were grown in the greenhouse, and on the 20th day after the spraying treatment, the herbicide was evaluated for herbicidal efficacy.
as §8

[20] = test system: cocklebur; test: Upland soil treatment test (8); settings: 1000 g a.i./hectare, 20th day after spraying
Procedure: as §1, §10, §11, §8

[21] = test system: green foxtail; test: Upland soil treatment test (8); settings: 1000 g a.i./hectare, 20th day after spraying
Procedure: as §1, §10, §11, §8

[22] = test system: large crabgrass; test: Upland soil treatment test (8); settings: 1000 g a.i./hectare, 20th day after spraying
Procedure: as §1, §10, §11, §8

[23] = test system: slender amaranth; test: Upland soil treatment test (8); settings: 1000 g a.i./hectare, 20th day after spraying
Procedure: as §1, §10, §11, §8

[24] = test system: velvetleaf; test: Upland soil treatment test (8); settings: 1000 g a.i./hectare, 20th day after spraying
Procedure: as §1, §10, §11, §8
Further: ranges in brackets are in %.

Pyrazolate [x, reference compound]
Herbicidal Efficacy barnyard grass [1]: 0 (81-100) | Herbicidal Efficacy cocklebur [2]: 0 (81-100) | Herbicidal Efficacy green foxtail [3]: 0 (81-100) | Herbicidal Efficacy large crabgrass [4]: 0 (81-100) | Herbicidal Efficacy slender amaranth [5]: 1 (61-80) | Herbicidal Efficacy velvetleaf [6]: 0 (81-100) | Herbicidal Efficacy barnyard grass [7]: 0 (81-100) | Herbicidal Efficacy cocklebur [8]: 0 (81-100) | Herbicidal Efficacy green foxtail [9]: 0 (81-100) | Herbicidal Efficacy large crabgrass [10]: 0 (81-100) | Herbicidal Efficacy slender amaranth [11]: 0 (81-100) | Herbicidal Efficacy velvetleaf [12]: 0 (81-100) | Herbicidal Efficacy barnyard grass [13]: 0 (81-100) | Herbicidal Efficacy cocklebur [14]: 0 (81-100) | Herbicidal Efficacy green foxtail [15]: 0 (81-100) | Herbicidal Efficacy large crabgrass [16]: 0 (81-100) | Herbicidal Efficacy slender amaranth [17]: 0 (81-100) | Herbicidal Efficacy velvetleaf [18]: 0 (81-100) | Herbicidal Efficacy barnyard grass [19]: 0 (81-100) | Herbicidal Efficacy cocklebur [20]: 0 (81-100) | Herbicidal Efficacy green foxtail [21]: 0 (81-100) | Herbicidal Efficacy large crabgrass [22]: 0 (81-100) | Herbicidal Efficacy slender amaranth [23]: 1 (61-80) | Herbicidal Efficacy velvetleaf [24]: 0 (81-100)
